What was measured:
[1] = Fluorescence emission before/after photolysis at pH=8 (spectroscopic studies of photo reactions); type: physicochemical
Procedure: FIG. 16. Spectroscopic studies of photo reactions for different FLASH-off probes. A. Schematic depiction of the photo reactions for FLASH-off 500-650 (1a-d respectively) with the absorbance and emission spectra scans of the photo reactions (5 μM) in (citric acid+Na2HPO4 buffer, pH=8) before (red) and after (dark) irradiation 1 min 365 nm lamp. All spectra were taken in triplicates. B. Pictures of solutions of panel A in white light (top and bottom) and under UV light (middle).
Photolysis experiments. Solutions for compounds 1a-d were made in the corresponding buffers (pH=3-8) at a concentration of 1-100 μM. The samples were irradiated using different UV light sources (i) LED light source (405 nm, 1.14 mW cm^−2, LuxeonStar SZ-05-U3); UV lamp (˜365 nm, 0.32 mW cm^−2; UVL-28 EL Series, UVP) at different power and time settings (1 s-5 min). Fluorescence intensity was measured at the corresponding λmax of emission before irradiation (t=0 min) and after irradiation (t=1, 2, 3, and 5 min). The data were plotted as the integrated fluorescence intensity normalized to the initial intensity (I=1).

[2] = test system: human FFPE tonsil sections; assay: Multiplexed tissue imaging and quenching in FFPE tonsil sections
Procedure: FIG. 23. Quenching can be spatially controlled. A. Focused local quenching experiment (top) in tonsil tissue sections using an epifluorescent microscope. Local quenching was performed using a 40× magnification (DAPI, 8 s) and read-out was performed with 10× magnification (647 nm channel). (<90%) of fixed human tonsil stained with CD45-FLASH-off 650. Whole sample quenching (bottom) was achieved by soaking the sample with buffer at pH=8.4 and using an external 405 nm lamp placed at about 1 cm distance for 2 min. Scale bar=[…] (top), […] (bottom).
Human tissue sections. De-identified formaldehyde-fixed paraffin-embedded tissue sections were commercially obtained from Biomax (HuFOT161, Biomax). Tissue sections were de-paraffinized, rehydrated, and antigen-retrieved in pH 9antigen retrieval buffer. Then sections were blocked with Intercept Blocking buffer (LI-COR) for 30 min before antibody staining for FLASH-off FFPE. Tissues were incubated with FLASH-off antibody conjugates for 30 minutes followed by rinses. […]
We prepared four antibody-FLASH-off conjugates that recognize human immune markers including CD45, CD11c, CD11b, and Pan-CK. […] Regions of high immune cell density were localized and the location of the selected immune markers was assessed within the distinctive morphological structures of tonsils tissue. […]

SMILES: CNC(=O)c1ccccc1Cc1c2ccc(=N)c(S(=O)(=O)O)c-2oc2c(S(=O)(=O)O)c(N)ccc12 [Compound 7a]
- spirocyclization with increasing pH [1]: did not proceed with increasing pH

SMILES: N=C(N)c1ccc(-c2cc3ccc(C(=N)N)cc3[nH]2)cc1 [DAPI]
- signal intensity of non-photoquenchable stains after UV light irradiation [2]: without causing an apparent decrease in signal intensity

Source: patent publication US20250283800A1, “PROBES FOR FLUORESCENCE IMAGING” (The General Hospital Corporation, priority 2022, published 2025)
